Assay results as given in patent US20220081422A1 (Janssen Biotech, Inc., priority 2019, published 2022).

Key:
[1] = test system: MOLM-13 cells; assay: MOLM-13 cellular assay (CellTiter-Glo cell viability); assay type: cell-based; settings: 72 hours exposure, cell viability by CellTiter-Glo
Outline: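 Cells seeded at 5,000/well and exposed to graded compound concentrations for 72 h at 37° C, 5% CO2 immediately after seeding. Viability read by CellTiter-Glo luminescence.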

[2] = target: T1, human DHODH (Homo sapiens, UniProt Q02127); assay: DHODH enzymatic assay (DCIP absorbance, end-point); assay type: biochemical; settings: purified human DHODH, DCIP as final electron acceptor, end-point mode; read-out: hDHODH IC50
T1 construct: purchased Proteros PR-0044
Outline: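 Purified human DHODH; end-point absorbance of DCIP reduction as terminal electron acceptor. Reaction started with substrate mix of 20 mM DHO, 5 mM CoQ6, 1 mM DCIP (substrate-solution concentrations) in […] pH 7.5, 150 mM NaCl, 0.5 mM EDTA, 0.1% Triton X-100.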

T1 sequence (Q02127 whole entry): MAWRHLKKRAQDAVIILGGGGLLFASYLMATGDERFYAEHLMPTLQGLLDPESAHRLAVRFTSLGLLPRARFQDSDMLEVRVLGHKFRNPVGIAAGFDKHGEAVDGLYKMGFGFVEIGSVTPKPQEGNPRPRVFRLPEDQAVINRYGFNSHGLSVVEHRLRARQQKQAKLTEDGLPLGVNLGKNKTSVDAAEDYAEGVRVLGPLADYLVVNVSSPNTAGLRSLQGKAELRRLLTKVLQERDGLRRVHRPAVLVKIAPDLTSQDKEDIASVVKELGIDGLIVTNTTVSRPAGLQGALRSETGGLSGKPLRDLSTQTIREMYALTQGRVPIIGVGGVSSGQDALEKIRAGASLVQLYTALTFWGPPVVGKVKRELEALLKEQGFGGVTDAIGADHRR

Row | IC50 ([1]; Homo sapiens, MOLM-13, 72 h) | IC50 [2] | IC50 [1] | SMILES
1 | 1.7 nM | 11 nM |  | CCn1c(CO)nn(-c2nc3c(cc2F)C(=O)N(c2c(F)cccc2Cl)CN3C2CC2)c1=O [Example 9, 3-(2-Chloro-6-fluorophenyl)-1-cyclopropyl-7-(4-ethyl-3-(hydroxymethyl)-5-oxo-4,5-dihydro-1H-1,2,4-triazol-1-yl)-6-fluoro-2,3-dihydropyrido[2,3-d]pyrimidin-4(1H)-one]
2 | 36.1 nM | 20 nM |  | CCn1c(CO)nn(-c2cc3c(cc2F)C(=O)N(c2c(C)ccnc2Cl)CN3C(C)C)c1=O [Example 28, 3-(2-Chloro-4-methylpyridin-3-yl)-7-(4-ethyl-3-(hydroxymethyl)-5-oxo-4,5-dihydro-1H-1,2,4-triazol-1-yl)-6-fluoro-1-isopropyl-2,3-dihydroquinazolin-4(1H)-one]
3 |  | 10 nM | 2.28 nM | C=C(C)C1CN(c2c(C)n[nH]c2Cl)C(=O)c2cc(F)c(-n3nc(CO)n(CC)c3=O)cc21 (single isomer, unassigned) [Example 49, (R *)-2-(5-Chloro-3-methyl-1H-pyrazol-4-yl)-6-(4-ethyl-3-(hydroxymethyl)-5-oxo-4,5-dihydro-1H-1,2,4-triazol-1-yl)-7-fluoro-4-(prop-1-en-2-yl)-3,4-dihydroisoquinolin-1(2H)-one]
4 | 8.4 nM | 35 nM |  | CCn1c(CO)nn(-c2cc3c(cc2F)C(=O)N(c2c(F)cccc2Cl)C(C)N3C(C)C)c1=O (centres unmarked) [Example 2, 3-(2-Chloro-6-fluorophenyl)-7-(4-ethyl-3-(hydroxymethyl)-5-oxo-4,5-dihydro-1H-1,2,4-triazol-1-yl)-6-fluoro-1-isopropyl-2-methyl-2,3-dihydroquinazolin-4(1H)-one]
5 |  | 2 nM | 4.66 nM | C=C(C)C1CN(c2c(F)cccc2Cl)C(=O)c2cc(F)c(-n3nc(CO)n(CC)c3=O)cc21 (single isomer, unassigned) [Example 68, (R*)-2-(2-Chloro-6-fluorophenyl)-6-(4-ethyl-3-(hydroxymethyl)-5-oxo-4,5-dihydro-1H-1,2,4-triazol-1-yl)-7-fluoro-4-(prop-1-en-2-yl)-3,4-dihydroisoquinolin-1(2H)-one]
6 | 58 nM | 140 nM |  | CCn1c(CO)nn(-c2ccc3c(c2)C(C(C)C)CN(c2ccccc2F)C3=O)c1=O (racemic) [Example 12, Racemic-6-(4-Ethyl-3-(hydroxymethyl)-5-oxo-4,5-dihydro-1H-1,2,4-triazol-1-yl)-2-(2-fluorophenyl)-4-isopropyl-3,4-dihydroisoquinolin-1(2H)-one]
7 |  | > 100 nM | 351 nM | CCn1c(CO)nn(-c2cc3c(cc2F)C(=O)N(c2c(C)cnc(OC)c2Cl)CC3C(C)C)c1=O (single isomer, unassigned) [Example 67, (R *)-2-(3-Chloro-2-methoxy-5-methylpyridin-4-yl)-6-(4-ethyl-3-(hydroxymethyl)-5-oxo-4,5-dihydro-1H-1,2,4-triazol-1-yl)-7-fluoro-4-isopropyl-3,4-dihydroisoquinolin-1(2H)-one]
8 |  | > 100 nM | 359 nM | C=C(C)[C@H]1CN(c2c(C)cnc(OC)c2Cl)C(=O)c2cc(F)c(-n3nc(CO)n(CC)c3=O)cc21 (single isomer, unassigned; atropisomer 1) [Example 63, Atropisomer 1, (R *)-2-(3-Chloro-2-methoxy-5-methylpyridin-4-yl)-6-(4-ethyl-3-(hydroxymethyl)-5-oxo-4,5-dihydro-1H-1,2,4-triazol-1-yl)-7-fluoro-4-(prop-1-en-2-yl)-3,4-dihydroisoquinolin-1(2H)-one]
9 |  | 4 nM | 6.79 nM | C=C(C)C1CN(c2ccccc2C)C(=O)c2cc(F)c(-n3nc(CO)n(CC)c3=O)cc21 (single isomer, unassigned) [Example 42, (R *)-6-(4-Ethyl-3-(hydroxymethyl)-5-oxo-4,5-dihydro-1H-1,2,4-triazol-1-yl)-7-fluoro-4-(prop-1-en-2-yl)-2-(o-tolyl)-3,4-dihydroisoquinolin-1(2H)-one]
10 | 50 nM | 57 nM |  | CCn1c(CO)nn(-c2nc3c(cc2F)C(=O)N(c2c(F)cccc2Cl)CN3C2CCOCC2)c1=O [Example 6, 3-(2-Chloro-6-fluorophenyl)-7-(4-ethyl-3-(hydroxymethyl)-5-oxo-4,5-dihydro-1H-1,2,4-triazol-1-yl)-6-fluoro-1-(tetrahydro-2H-pyran-4-yl)-2,3-dihydropyrido[2,3-d]pyrimidin-4(1H)-one]
11 | < 1.69 nM | 0.3 nM |  | CC[C@H](C)N1CN(c2c(F)cccc2Cl)C(=O)c2cc(F)c(-n3nc(CO)n(CC)c3=O)cc21 [Example 16, (S)-1-(sec-Butyl)-3-(2-chloro-6-fluorophenyl)-7-(4-ethyl-3-(hydroxymethyl)-5-oxo-4,5-dihydro-1H-1,2,4-triazol-1-yl)-6-fluoro-2,3-dihydroquinazolin-4(1H)-one]
12 |  | > 100 nM | 29.7 nM | C=C(C)[C@H]1CN(c2c(C)cnc(OC)c2C)C(=O)c2cc(F)c(-n3nc(CO)n(CC)c3=O)cc21 (single isomer, unassigned; atropisomer 2) [Example 57, Atropisomer 2, (R*)-6-(4-Ethyl-3-(hydroxymethyl)-5-oxo-4,5-dihydro-1H-1,2,4-triazol-1-yl)-7-fluoro-2-(2-methoxy-3,5-dimethylpyridin-4-yl)-4-(prop-1-en-2-yl)-3,4-dihydroisoquinolin-1(2H)-one]
13 |  | 90 nM | 114 nM | C=C(C)[C@H]1CN(c2c(C)cc(C)nc2Cl)C(=O)c2cc(F)c(-n3nc(CO)n(CC)c3=O)cc21 (single isomer, unassigned; atropisomer 2) [Example 61, Atropisomer 2, (R*)-2-(2-Chloro-4,6-dimethylpyridin-3-yl)-6-(4-ethyl-3-(hydroxymethyl)-5-oxo-4,5-dihydro-1H-1,2,4-triazol-1-yl)-7-fluoro-4-(prop-1-en-2-yl)-3,4-dihydroisoquinolin-1(2H)-one]
